Bridge positions count the residues as written; N and C are the ends. Square brackets hold non-standard residues; d marks the D form. Peptide text beside a SMILES is read from it. I, II: the chains in the order shown. * marks the point of attachment. DOTA = O=C(O)CN1CCN(CC(=O)O)CCN(CC(=O)*)CCN(CC(=O)O)CC1; Nle = CCCC[C@H](N)C(=O)O; Dap = NC[C@H](N)C(=O)O
How the values were obtained:
[1] = molecular target: T1, NPY Y1 receptor (Homo sapiens, UniProt P25929); assay: Receptor autoradiography competition binding (125I-hPYY) on SK-N-MC cell membrane pellet sections; details: for IC50: SK-N-MC membrane pellets, 125I-hPYY displacement, mean ± SEM, n ≥ 3, read-out: Binding affinity Y1 (IC50)
T1 construct: SK-N-MC cells endogenously expressing Y1; host or cells: SK-N-MC
T1 sequence (P25929 1-384): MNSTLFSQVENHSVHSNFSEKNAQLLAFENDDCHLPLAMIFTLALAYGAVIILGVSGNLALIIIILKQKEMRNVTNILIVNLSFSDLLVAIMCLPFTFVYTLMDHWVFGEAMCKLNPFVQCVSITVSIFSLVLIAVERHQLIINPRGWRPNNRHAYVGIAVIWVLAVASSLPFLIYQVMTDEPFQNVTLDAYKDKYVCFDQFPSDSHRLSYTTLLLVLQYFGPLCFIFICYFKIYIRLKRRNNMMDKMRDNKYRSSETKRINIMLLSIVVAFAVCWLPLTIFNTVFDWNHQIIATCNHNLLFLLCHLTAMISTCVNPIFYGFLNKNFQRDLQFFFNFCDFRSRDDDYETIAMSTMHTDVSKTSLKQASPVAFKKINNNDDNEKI
Experimental: (§1) The neuroepithelioma cell line SK-N-MC endogenously expressing the NPY Y1 receptor was obtained from ATCC (HTB-10; LGC Standards, Teddington, Middlesex, UK) and cultured at 37°C and 5% CO2 in MEM with GlutaMax I and supplemented with 10% FBS, 100 U/ml penicillin and 100 μg/ml streptomycin, 1 mM MEM sodium pyruvate, and MEM non-essential amino acids (× 1). The neuroblastoma cell line SH-SY5Y endogenously expressing the NPY Y2 receptor, kindly provided by Dr. Paolo Paganetti (Novartis, Basel, Switzerland), was cultured at 37°C and 5% CO2 in MEM/Ham's F12 with GlutaMax I and supplemented with 10% FBS, 100 U/ml penicillin and 100 μg/ml streptomycin, 1 mM MEM sodium pyruvate, and MEM non-essential amino acids (× 1). All culture reagents were from Gibco BRL, Life Technologies, (Grand Island, NY, USA).
(§2) Binding affinities of the compounds were assessed using sections of cell membrane pellets of SK-N-MC for Y1 or SH-SY5Y for Y2, as described before. Briefly, membrane pellets were prepared and stored at -80°C, and receptor autoradiography was performed on 20-μm-thick cryostat (Microm HM 500, Walldorf, Germany) sections of the membrane pellets, mounted on microscope slides and stored at -20°C as previously described for other cell lines and receptors. The slides were preincubated in Krebs-Ringer solution (NaCl 119 mM, KCl 3.2 mM, KH2PO4 1.19 mM, MgSO4 1.19 mM, NaHCO3 25 mM, CaCl2 2.53 mM, D-glucose 10 mM; pH 7.4) for 60 min at room temperature. Then, they were incubated for 120 min in the incubation solution containing the Krebs-Ringer solution, 0.1% BSA, 0.05% bacitracin, and 10,000 cpm/100 μl of the ^125I-labeled human PYY (hPYY; 2,000 Ci/mmol; Anawa, Wangen, Switzerland). Membrane pellet sections were incubated with ^125I-hPYY in increasing concentrations ranging from 0.1 nM up to 1,000 nM of non-labeled hPYY, as control, or with the compounds to be tested. After the incubation, the slides were washed two times for 5 min and then rinsed four times in ice-cold preincubation solution. After drying, the slides were exposed to Kodak films Biomax MR® for 7 days. IC50 values were calculated after quantification of the data using a computer-assisted image processing system (Analysis Imaging System, Interfocus, Mering, Germany). Tissue standards (autoradiographic [^125I] and/or [^14C] microscales, GE Healthcare, Little Chalfont, UK) containing a known amount of isotope, cross-calibrated to tissue-equivalent ligand concentrations were used for quantification.

[2] = molecular target: T2, NPY Y2 receptor (Homo sapiens, UniProt P49146); assay: Receptor autoradiography competition binding (125I-hPYY) on SH-SY5Y cell membrane pellet sections; details: SH-SY5Y membrane pellets, 125I-hPYY displacement; n ≥ 3; read-out: Binding affinity Y2 (IC50)
T2 construct: SH-SY5Y cells endogenously expressing Y2; endogenous in cells; host or cells: SH-SY5Y
T2 sequence (P49146 1-381): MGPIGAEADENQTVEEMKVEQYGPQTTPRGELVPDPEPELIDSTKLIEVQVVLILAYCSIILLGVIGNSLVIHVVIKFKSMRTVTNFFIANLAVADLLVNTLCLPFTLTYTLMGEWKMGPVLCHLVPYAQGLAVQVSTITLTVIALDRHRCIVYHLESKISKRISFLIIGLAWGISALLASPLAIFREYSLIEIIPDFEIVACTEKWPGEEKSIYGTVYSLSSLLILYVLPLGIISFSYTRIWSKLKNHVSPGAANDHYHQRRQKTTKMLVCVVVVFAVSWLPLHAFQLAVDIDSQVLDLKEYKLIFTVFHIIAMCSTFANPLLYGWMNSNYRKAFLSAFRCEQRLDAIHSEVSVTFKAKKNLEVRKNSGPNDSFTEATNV
Experimental: as §1, §2

`CCCC[C@H](NC(=O)[C@H](CCCNC(=N)N)NC(=O)[C@H](Cc1c[nH]c2ccccc12)NC(=O)[C@H](CSSC[C@H](NC(=O)[C@@H]1CCCN1C(=O)[C@H](CN)NC(=O)[C@@H](N)[C@@H](C)CC)C(=O)N[C@@H](Cc1c[nH]c2ccccc12)C(=O)N[C@@H](CCCNC(=N)N)C(=O)N[C@@H](CCCC)C(=O)N[C@@H](CCCNC(=N)N)C(=O)N[C@@H](Cc1ccc(O)cc1)C(N)=O)NC(=O)[C@@H]1CCCN1C(=O)[C@H](CN)NC(=O)[C@@H](N)[C@@H](C)CC)C(=O)N[C@@H](CCCNC(=N)N)C(=O)N[C@@H](Cc1ccc(O)cc1)C(N)=O` [Analog 5] (I: H-I[Dap]PCWR[Nle]RY-NH2 / II: H-I[Dap]PCWR[Nle]RY-NH2; disulfide I:4-II:4) showed an IC50 [1] of 143 ± 20 nM and an IC50 [2] greater than 1000 nM.

With `CCCC[C@H](NC(=O)[C@H](CCCNC(=N)N)NC(=O)[C@H](Cc1c[nH]c2ccccc12)NC(=O)[C@H](CSSC[C@H](NC(=O)[C@@H]1CCCN1C(=O)[C@H](CC(N)=O)NC(=O)[C@@H](N)[C@@H](C)CC)C(=O)N[C@@H](Cc1c[nH]c2ccccc12)C(=O)N[C@@H](CCCNC(=N)N)C(=O)N[C@@H](CCCC)C(=O)N[C@@H](CCCNC(=N)N)C(=O)N[C@@H](Cc1ccc(O)cc1)C(N)=O)NC(=O)[C@@H]1CCCN1C(=O)[C@H](CN)NC(=O)[C@@H](N)[C@@H](C)CC)C(=O)N[C@@H](CCCNC(=N)N)C(=O)N[C@@H](Cc1ccc(O)cc1)C(N)=O` [Analog 7] (I: H-I[Dap]PCWR[Nle]RY-NH2 / II: H-INPCWR[Nle]RY-NH2; disulfide I:4-II:4) the IC50 [1] was 19 ± 5 nM and the IC50 [2] was greater than 1000 nM.

In the case of `CC[C@H](C)[C@H](NC(=O)CN1CCN(CC(=O)O)CCN(CC(=O)O)CCN(CC(=O)O)CC1)C(=O)N[C@@H](CC(N)=O)C(=O)N1CCC[C@H]1C(=O)N[C@@H](CSSC[C@H](NC(=O)[C@@H]1CCCN1C(=O)[C@H](CC(N)=O)NC(=O)[C@@H](NC(=O)CN1CCN(CC(=O)O)CCN(CC(=O)O)CCN(CC(=O)O)CC1)[C@@H](C)CC)C(=O)N[C@@H](Cc1ccc(O)cc1)C(=O)N[C@@H](CCCNC(=N)N)C(=O)N[C@@H](CC(C)C)C(=O)N[C@@H](CCCNC(=N)N)C(=O)N[C@@H](Cc1ccc(O)cc1)C(N)=O)C(=O)N[C@@H](Cc1ccc(O)cc1)C(=O)N[C@@H](CCCNC(=N)N)C(=O)N[C@@H](CC(C)C)C(=O)N[C@@H](CCCNC(=N)N)C(=O)N[C@@H](Cc1ccc(O)cc1)C(N)=O` [Analog 2] (I: {DOTA}-INPCYRLRY-NH2 / II: {DOTA}-INPCYRLRY-NH2; disulfide I:4-II:4), the IC50 [1] is reported as 143 ± 37 nM and the IC50 [2] is reported as greater than 1000 nM.

`CC[C@H](C)[C@H](N)C(=O)N[C@@H](CC(N)=O)C(=O)N1CCC[C@H]1C(=O)N[C@@H](CSSC[C@H](NC(=O)[C@@H]1CCCN1C(=O)[C@H](CC(N)=O)NC(=O)[C@@H](N)[C@@H](C)CC)C(=O)N[C@@H](Cc1ccc(O)cc1)C(=O)N[C@@H](CCCNC(=N)N)C(=O)N[C@@H](CC(C)C)C(=O)N[C@@H](CCCNC(=N)N)C(=O)N[C@@H](Cc1ccc(O)cc1)C(N)=O)C(=O)N[C@@H](Cc1ccc(O)cc1)C(=O)N[C@@H](CCCNC(=N)N)C(=O)N[C@@H](CC(C)C)C(=O)N[C@@H](CCCNC(=N)N)C(=O)N[C@@H](Cc1ccc(O)cc1)C(N)=O` [Analog 1, Bis(31/31')[Pro^30, Cys^31, Tyr^32, Leu^34]NPY(28-36)-NH2, reference compound] (I: H-INPCYRLRY-NH2 / II: H-INPCYRLRY-NH2; disulfide I:4-II:4) was tested, and the IC50 [1] was 11 ± 7 nM and the IC50 [2] was greater than 1000 nM.

In the case of `CCCC[C@H](NC(=O)[C@H](CCCNC(=N)N)NC(=O)[C@H](Cc1c[nH]c2ccccc12)NC(=O)[C@H](CSSC[C@H](NC(=O)[C@@H]1CCCN1C(=O)[C@H](CC(N)=O)NC(=O)[C@@H](NC(=O)CN1CCN(CC(=O)O)CCN(CC(=O)O)CCN(CC(=O)O)CC1)[C@@H](C)CC)C(=O)N[C@@H](Cc1c[nH]c2ccccc12)C(=O)N[C@@H](CCCNC(=N)N)C(=O)N[C@@H](CCCC)C(=O)N[C@@H](CCCNC(=N)N)C(=O)N[C@@H](Cc1ccc(O)cc1)C(N)=O)NC(=O)[C@@H]1CCCN1C(=O)[C@H](CC(N)=O)NC(=O)[C@@H](NC(=O)CN1CCN(CC(=O)O)CCN(CC(=O)O)CCN(CC(=O)O)CC1)[C@@H](C)CC)C(=O)N[C@@H](CCCNC(=N)N)C(=O)N[C@@H](Cc1ccc(O)cc1)C(N)=O` [Analog 4] (I: {DOTA}-INPCWR[Nle]RY-NH2 / II: {DOTA}-INPCWR[Nle]RY-NH2; disulfide I:4-II:4), the IC50 [1] is reported as 294 ± 33 nM and the IC50 [2] is reported as greater than 1000 nM.

Work on `CCCC[C@H](NC(=O)[C@H](CCCNC(=N)N)NC(=O)[C@H](Cc1c[nH]c2ccccc12)NC(=O)[C@H](CSSC[C@H](NC(=O)[C@@H]1CCCN1C(=O)[C@H](CCCCN)NC(=O)[C@@H](N)[C@@H](C)CC)C(=O)N[C@@H](Cc1c[nH]c2ccccc12)C(=O)N[C@@H](CCCNC(=N)N)C(=O)N[C@@H](CCCC)C(=O)N[C@@H](CCCNC(=N)N)C(=O)N[C@@H](Cc1ccc(O)cc1)C(N)=O)NC(=O)[C@@H]1CCCN1C(=O)[C@H](CCCCN)NC(=O)[C@@H](N)[C@@H](C)CC)C(=O)N[C@@H](CCCNC(=N)N)C(=O)N[C@@H](Cc1ccc(O)cc1)C(N)=O` [Analog 9] (I: H-IKPCWR[Nle]RY-NH2 / II: H-IKPCWR[Nle]RY-NH2; disulfide I:4-II:4) yielded an IC50 [1] of 127 ± 50 nM and an IC50 [2] greater than 1000 nM.

Compound `CCCC[C@H](NC(=O)[C@H](CCCNC(=N)N)NC(=O)[C@H](Cc1c[nH]c2ccccc12)NC(=O)[C@H](CSSC[C@H](NC(=O)[C@@H]1CCCN1C(=O)[C@H](CNC(=O)CN1CCN(CC(=O)O)CCN(CC(=O)O)CCN(CC(=O)O)CC1)NC(=O)[C@@H](N)[C@@H](C)CC)C(=O)N[C@@H](Cc1c[nH]c2ccccc12)C(=O)N[C@@H](CCCNC(=N)N)C(=O)N[C@@H](CCCC)C(=O)N[C@@H](CCCNC(=N)N)C(=O)N[C@@H](Cc1ccc(O)cc1)C(N)=O)NC(=O)[C@@H]1CCCN1C(=O)[C@H](CNC(=O)CN1CCN(CC(=O)O)CCN(CC(=O)O)CCN(CC(=O)O)CC1)NC(=O)[C@@H](N)[C@@H](C)CC)C(=O)N[C@@H](CCCNC(=N)N)C(=O)N[C@@H](Cc1ccc(O)cc1)C(N)=O` [Analog 6] (I: H-I[Dap](DOTA)PCWR[Nle]RY-NH2 / II: H-I[Dap](DOTA)PCWR[Nle]RY-NH2; disulfide I:4-II:4) has an IC50 [1] greater than 1000 nM and an IC50 [2] greater than 1000 nM.

Compound `CCCC[C@H](NC(=O)[C@H](CCCNC(=N)N)NC(=O)[C@H](Cc1c[nH]c2ccccc12)NC(=O)[C@H](CSSC[C@H](NC(=O)[C@@H]1CCCN1C(=O)[C@H](CC(N)=O)NC(=O)[C@@H](N)[C@@H](C)CC)C(=O)N[C@@H](Cc1c[nH]c2ccccc12)C(=O)N[C@@H](CCCNC(=N)N)C(=O)N[C@@H](CCCC)C(=O)N[C@@H](CCCNC(=N)N)C(=O)N[C@@H](Cc1ccc(O)cc1)C(N)=O)NC(=O)[C@@H]1CCCN1C(=O)[C@H](CC(N)=O)NC(=O)[C@@H](N)[C@@H](C)CC)C(=O)N[C@@H](CCCNC(=N)N)C(=O)N[C@@H](Cc1ccc(O)cc1)C(N)=O` [Analog 3] (I: H-INPCWR[Nle]RY-NH2 / II: H-INPCWR[Nle]RY-NH2; disulfide I:4-II:4) has an IC50 [1] of 9 ± 3 nM and an IC50 [2] greater than 1000 nM.

In the case of “hPYY: non-labeled human peptide YY, used as control in the binding assay [reference compound]”, the “Y1 binding affinity in words (displacement of 125I-hPYY)” value ([1]; SK-N-MC cell membrane pellet sections) is reported as “high-affinity displacements of ^125I-hPYY”.

— article PMC3250963, “Novel dimeric DOTA-coupled peptidic Y1-receptor antagonists for targeting of neuropeptide Y receptor-expressing cancers” (EJNMMI Research, 2011)
